Entries after “also recorded” stand apart in the source; their conditions may differ.
Key:
Format in all cases: in vivo
[1] = system: leukocytes rolling along the mesenteric venular walls; experiment: Counting of leukocytes rolling along inner walls of venules after I/R; details: rat mesenteric I/R
Description: (§1) The rats were anesthetized by intraperitoneal injection of pentobarbital sodium (30 mg/kg body weight (BW)). PE venous cannulas (#3) were cannulated into the right jugular of the rats and detained. The abdomen of each rat was incised in a length of 20-30 mm along the midline. The ileum near the ileocecal junctions was gently taken out and unfolded onto the object stage mounted with glass slides. The unfolded mesenteries were continuously dripped with Krebs-Ringer buffering solution at 37° C. The microcirculatory dynamics of the mesenteries was observed under white light (12V, 100 W) using an inverted biomicroscope (Diaphot TMD-2S, Nikon, Tokyo) placed in the thermostat at 37° C. Observation sites were selected under 20× object lens, and a video recording system with a time-displaying function was used to record what had been observed on S-VHS tape and preserved. […] Normal saline was administrated at 20 min before ischemia until the end of the observation by continuously intravenous drip via jugular at a dosage of 5 mg/kg/h. PE cannulas were used to ligate non-circulatory mesenteric arteries and veins, so as to observe the arteries and veins for 10 min, and then the ligation was lifted. Time was adjusted to zero and the microcirculatory dynamics under the same visual field was continuously observed for 60 min.
(§2) DLA was administrated at 20 min before ischemia until the end of the observation by continuously intravenous drip via jugular at a dosage of 5 mg/kg/h.
(§3) R1 was administrated at 20 min before ischemia until the end of the observation by continuously intravenous drip via jugular at a dosage of 5 mg/kg/h.
(§4) The combination of DLA and R1 in a weight ratio of 4:1 was administrated at 20 min before ischemia until the end of the observation by continuously intravenous drip via jugular at a dosage of 5 mg/kg/h.
(§5) The combination of DLA and R1 in a weight ratio of 1:1 was administrated at 20 min before ischemia until the end of the observation by continuously intravenous drip via jugular at a dosage of 5 mg/kg/h. […]
(§6) Wherein, 6 rats in each group were taken out, these rats were used for observing the following aspects: the venular diameters; leukocytes rolling, adhesion, and emigration and DHR fluorescence intensities of the venular walls. […]
(§7) Microcirculatory dynamics was continuously recorded using an inverted biomicroscope […] recording system (CC-090, Flovel, Tokyo) and SIT fluorescent camera (C-2400-08, Hamamatsu Photonics, Hamamatsu).
The leukocytes roiling along the inner walls of the venules in a length of 200 μm within 10 s was counted from the replayed images at the following time points: before ischemia, and 1 min, 10 min, 20 min, 30 min, 40 min, 50 min and 60 min after the beginning of the reperfusion.

[2] = system: peroxides in the mesenteric venular walls; experiment: DHR fluorescence intensities of venular walls (production of peroxides) after I/R; details: rat mesenteric I/R
Description: The rats were anesthetized by intraperitoneal injection of pentobarbital sodium (30 mg/kg body weight (BW)). PE venous cannulas (#3) were cannulated into the right jugular of the rats and detained. The abdomen of each rat was incised in a length of 20-30 mm along the midline. The ileum near the ileocecal junctions was gently taken out and unfolded onto the object stage mounted with glass slides. The unfolded mesenteries were continuously dripped with Krebs-Ringer buffering solution at 37° C. The microcirculatory dynamics of the mesenteries was observed under white light (12V, 100 W) using an inverted biomicroscope (Diaphot TMD-2S, Nikon, Tokyo) placed in the thermostat at 37° C. Observation sites were selected under 20× object lens, and a video recording system with a time-displaying function was used to record what had been observed on S-VHS tape and preserved. […] PE cannulas were used to ligate non-circulatory mesenteric arteries and veins, so as to observe the arteries and veins for 10 min, and then the ligation was lifted. Time was adjusted to zero and the microcirculatory dynamics under the same visual field was continuously observed for 60 min. […]
(§8) DLA was administrated at 10 min after I/R until the end of the observation by continuously intravenous drip via jugular at a dosage of 5 mg/kg/h. […]
as §6, §7
The H2O2-sensitive fluorescent probes DHR ([…]) were continuously dripped onto the surfaces of the rat's mesenteries to be observed. An inverted fluorescence microscope (DM-IRB, Leica, Germany) with an excitation wavelength at 455 nm and a mercury lamp as an excitation source (100 W) was used. The images were recorded with a CD camera at the following time points: before ischemia, and 1 min, 10 min, 20 min, 30 min, 40 min, 50 min and 60 min after the beginning of the reperfusion. The fluorescence intensities of the venular wall and the extravascular interstitial substance were measured with a Image-Pro Plus 5.0 software. The […] value between the fluorescence intensity of the venular wall and that of the extravascular interstitial substance before ischemia was taken as a baseline. The ratio of the changing value at each time point to the baseline were calculated, which was used to indicate the changing rate of the DHR fluorescence intensities of the rat's mesenteric venular walls.

[3] = system: leukocytes emigrated from the mesenteric venules; experiment: Counting of leukocytes emigrated from venules after I/R; details: rat mesenteric I/R
Description: as §1, §2, §3, §4, §5, §6, §7
The number of the leukocytes emigrated from the mesenteric venules was observed and counted from the replayed images at the following time points: before ischemia, and 1 min, 10 min, 20 min, 30 min, 40 min, 50 min and 60 min after the beginning of the reperfusion.

[4] = system: plasma albumin leakage from the mesenteric venules; experiment: FITC-labeled albumin leakage from venules after I/R; details: rat mesenteric I/R; for inhibition of the plasma albumin leakage from the venules after reperfusion: post-administration, 5 mg/kg/h continuous i.v. drip from 20 min after ischemia (DLA: 10 min after I/R); for inhibition of the plasma albumin leakage from the venules after I/R: pre-administration, 5 mg/kg/h continuous i.v. drip from 20 min before ischemia
Description: as §1, §2, §3, §4
The combination of DLA and R1 in a weight ratio of 1:1 was administrated at 20 min before ischemia until the end of the observation by continuously intravenous drip via jugular at a dosage of 5 mg/kg/h.
The combination of DLA and R1 in a weight ratio of 1:4 was administrated at 20 min before ischemia until the end of the observation by continuously intravenous drip via jugular at a dosage of 5 mg/kg/h.
as §8, §6
Microcirculatory dynamics was continuously recorded using an inverted biomicroscope […] recording system (CC-090, Flovel, Tokyo) and SIT fluorescent camera (C-2400-08, Hamamatsu Photonics, Hamamatsu). […]

[5] = post-administration, 5 mg/kg/h continuous i.v. drip from 20 min after ischemia (DLA: 10 min after I/R)
[6] = pre-administration, 5 mg/kg/h continuous i.v. drip from 20 min before ischemia, 5 mg/kg
[7] = pre-administration, 5 mg/kg/h continuous i.v. drip from 20 min before ischemia

| SMILES | inhibition of leukocytes rolling along the mesenteric venular walls caused by I/R [1, 5] | inhibition of leukocytes rolling along the mesenteric venular walls caused by I/R [1, 6] | inhibition of the production of peroxides in the mesenteric venular walls after I/R (DHR fluorescence) [2, 5] | inhibition of the production of peroxides in the mesenteric venular walls after I/R (DHR fluorescence) [2, 7] | inhibition of the emigration of leukocytes from the mesenteric venules after I/R [3, 5] | inhibition of the emigration of leukocytes from the mesenteric venules after I/R [3, 7] | inhibition of the plasma albumin leakage from the venules after reperfusion [4] | inhibition of the plasma albumin leakage from the venules after I/R [4] | inhibition of leukocytes rolling along the mesenteric venular walls caused by I/R ([1]; post-administration, 5 mg/kg/h continuous i.v. drip from 20 min after ischemia (DLA: 10 min after I/R), 5 mg/kg) |
| --- | --- | --- | --- | --- | --- | --- | --- | --- | --- |
| O=C(O)C(O)Cc1ccc(O)c(O)c1 (stereo not shown) [DLA, 3,4-dihydroxyphenyl lactic acid] | has the same effects as those of the pre-administration | can apparently suppress; also recorded: can inhibit | had significant inhibitory effects; also recorded: has the same effects as those of the pre-administration | had significant inhibitory effects; also recorded: can inhibit | had significant inhibitory effects; also recorded: has the same effects as those of the pre-administration | had significant inhibitory effects; also recorded: can inhibit | had significant inhibitory effects; also recorded: has the same effects as those of the pre-administration | had significant inhibitory effects; also recorded: can inhibit |  |
| CC(C)=CCC[C@](C)(O[C@@H]1O[C@H](CO)[C@@H](O)[C@H](O)[C@H]1O)[C@H]1CC[C@]2(C)[C@@H]1[C@H](O)C[C@@H]1[C@@]3(C)CC[C@H](O)C(C)(C)[C@@H]3[C@@H](O[C@@H]3O[C@H](CO)[C@@H](O)[C@H](O)[C@H]3O[C@@H]3OC[C@@H](O)[C@H](O)[C@H]3O)C[C@]12C [R1, Notoginsenoside R1] |  | had no significant inhibitory effects; also recorded: have no significant inhibitory effects | had no significant inhibitory effects; also recorded: has no inhibitory effects | had no significant inhibitory effects; also recorded: has no inhibitory effects | had significant inhibitory effects; also recorded: can inhibit | had significant inhibitory effects; also recorded: can inhibit | had significant inhibitory effects; also recorded: can inhibit | had significant inhibitory effects; also recorded: can inhibit | had no significant inhibitory effects; also recorded: have no significant inhibitory effects |
